SMILES strings stand for the structures. Where two headings read alike, the source gives them in different places.

The source of these data is US20260028354A1, “TETRAHYDRONAPHTHALENE DERIVATIVES AS ESTROGEN RECEPTOR DEGRADERS” (REGENT OF THE UNIVERSITY OF MICHIGAN, priority 2022, published 2026).

The target of one assay is CRBN/DDB1 (Homo sapiens (Human), UniProt Q96SW2). The class given is binding. Particulars: His tagged CRBN+DDB1, Cy5-labeled Thalidomide probe, one hour; read-out: CRBN HTRF IC50. As to the method:
The binding potency was determined using HTRF assay technology (Perkin Elmer). Compounds were serially diluted in DMSO and […] volume was transferred to white 384-well plate.

The next assay addresses ER in MCF-7 cells (Homo sapiens (Human), UniProt P03372). The assay can be described thus: In-cell Western (ICW) ER degradation assay in MCF-7 cells. To be noted: for DC50: MCF-7, ER degradation, read-out: MCF7 DC50. It counts as cell-based.
Where [1] appears, read: MCF7, read-out: MCF7 Dmax, MCF-7, maximal ER degradation, 16 hrs treatment.
Setting [2] is: MCF7, MCF-7, maximal ER degradation, 16 hrs treatment, read-out: MCF7 Dmax.

ER in MCF-7 cells, sequence (P03372 whole entry): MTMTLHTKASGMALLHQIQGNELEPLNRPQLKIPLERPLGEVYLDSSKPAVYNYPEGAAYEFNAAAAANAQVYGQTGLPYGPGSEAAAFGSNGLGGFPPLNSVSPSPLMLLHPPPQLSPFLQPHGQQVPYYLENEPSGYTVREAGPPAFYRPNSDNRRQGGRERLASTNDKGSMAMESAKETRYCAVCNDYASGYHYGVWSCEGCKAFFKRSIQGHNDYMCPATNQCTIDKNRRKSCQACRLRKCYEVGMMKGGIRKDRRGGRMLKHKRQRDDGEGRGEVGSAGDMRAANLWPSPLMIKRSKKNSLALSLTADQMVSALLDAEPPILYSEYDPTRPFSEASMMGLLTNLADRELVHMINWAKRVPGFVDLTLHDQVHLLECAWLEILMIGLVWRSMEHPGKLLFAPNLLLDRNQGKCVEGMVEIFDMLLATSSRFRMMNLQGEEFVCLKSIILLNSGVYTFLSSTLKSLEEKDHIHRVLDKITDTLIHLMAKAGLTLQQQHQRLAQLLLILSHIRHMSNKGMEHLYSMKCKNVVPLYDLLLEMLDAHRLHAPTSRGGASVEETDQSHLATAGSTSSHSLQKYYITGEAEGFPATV
CRBN/DDB1, sequence (Q96SW2 whole entry, species assumed): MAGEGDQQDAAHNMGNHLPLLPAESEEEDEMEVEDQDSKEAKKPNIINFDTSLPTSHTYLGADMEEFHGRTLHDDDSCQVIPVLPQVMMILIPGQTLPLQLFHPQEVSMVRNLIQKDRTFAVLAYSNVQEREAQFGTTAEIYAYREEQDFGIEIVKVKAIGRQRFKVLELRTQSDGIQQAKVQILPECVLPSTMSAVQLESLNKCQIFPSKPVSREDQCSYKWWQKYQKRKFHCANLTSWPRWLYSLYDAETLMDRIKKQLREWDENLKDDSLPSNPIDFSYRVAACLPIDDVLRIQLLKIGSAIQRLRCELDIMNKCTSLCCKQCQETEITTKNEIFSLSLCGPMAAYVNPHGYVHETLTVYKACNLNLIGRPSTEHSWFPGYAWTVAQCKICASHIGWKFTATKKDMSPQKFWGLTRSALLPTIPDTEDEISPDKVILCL
CRBN/DDB1, sequence (Q16531 whole entry partner, species assumed): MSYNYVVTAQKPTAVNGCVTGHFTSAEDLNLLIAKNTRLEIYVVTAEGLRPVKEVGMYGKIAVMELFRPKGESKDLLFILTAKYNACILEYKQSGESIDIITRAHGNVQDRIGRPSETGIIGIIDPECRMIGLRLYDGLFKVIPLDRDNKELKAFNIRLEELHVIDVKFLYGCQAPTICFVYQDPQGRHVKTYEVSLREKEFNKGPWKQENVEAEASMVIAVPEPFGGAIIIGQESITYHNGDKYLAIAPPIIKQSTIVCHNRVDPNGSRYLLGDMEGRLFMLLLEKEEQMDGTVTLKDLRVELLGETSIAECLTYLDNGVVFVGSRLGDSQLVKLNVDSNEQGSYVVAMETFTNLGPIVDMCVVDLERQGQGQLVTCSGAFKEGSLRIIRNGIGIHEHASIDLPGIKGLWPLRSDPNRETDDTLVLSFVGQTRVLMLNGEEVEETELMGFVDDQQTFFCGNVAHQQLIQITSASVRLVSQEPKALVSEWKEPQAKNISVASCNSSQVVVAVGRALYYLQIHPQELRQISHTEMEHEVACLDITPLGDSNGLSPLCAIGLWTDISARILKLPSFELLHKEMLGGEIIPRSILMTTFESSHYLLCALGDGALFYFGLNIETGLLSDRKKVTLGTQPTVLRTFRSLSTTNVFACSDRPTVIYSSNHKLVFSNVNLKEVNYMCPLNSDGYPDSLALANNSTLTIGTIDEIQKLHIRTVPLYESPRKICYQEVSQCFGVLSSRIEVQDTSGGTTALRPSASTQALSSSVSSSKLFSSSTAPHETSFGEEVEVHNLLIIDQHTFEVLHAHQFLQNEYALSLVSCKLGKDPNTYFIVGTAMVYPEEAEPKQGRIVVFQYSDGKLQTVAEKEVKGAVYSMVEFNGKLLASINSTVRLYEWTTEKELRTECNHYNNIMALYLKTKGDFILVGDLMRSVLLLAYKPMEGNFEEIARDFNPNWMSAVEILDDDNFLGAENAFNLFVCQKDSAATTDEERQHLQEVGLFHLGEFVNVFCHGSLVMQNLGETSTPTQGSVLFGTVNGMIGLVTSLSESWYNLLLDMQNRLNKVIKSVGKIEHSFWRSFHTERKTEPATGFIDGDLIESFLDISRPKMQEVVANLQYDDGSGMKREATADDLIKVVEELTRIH

For `O=C1CC[C@H](N2Cc3c(ccc4c3OCC43CCN(C[C@H]4COC5(C4)CN(c4ccc([C@@H]6c7ccc(O)cc7CC[C@@H]6c6ccccc6)cc4)C5)CC3)C2=O)C(=O)N1` [Compound A74, (S)-3-(1′-(((S)-2-(4-((1R,2S)-6-hydroxy-2-phenyl-1,2,3,4-tetrahydronaphthalen-1-yl)phenyl)-5-oxa-2-azaspiro[3,4]octan-7-yl)methyl)-6-oxo-6,8-dihydro-2H,7H-spiro[furo[2,3-e]isoindole-3,4′-piperidin]-7-yl)piperidine-2,6-dione], the IC50 at CRBN/DDB1 is under 50 nM. On ER in MCF-7 cells (setting [1]), the Dmax lay within 50 to 75%. For the same molecule, the DC50 at ER in MCF-7 cells (16 hrs treatment) was under 1 nM.
For `O=C1CC[C@H](N2Cc3c(ccc4c3OCC43CCN(CC4CCC5(CC4)CN(c4ccc([C@H]6c7ccc(O)cc7CC[C@H]6c6ccccc6)cc4F)C5)CC3)C2=O)C(=O)N1` [Compound A160, (S)-3-(1′-((2-(2-fluoro-4-((1S, 2R)-6-hydroxy-2-phenyl-1,2,3,4-tetrahydronaphthalen-1-yl)phenyl)-2-azaspiro[3.5]nonan-7-yl)methyl)-6-oxo-6,8-dihydro-2H,7H-spiro[furo[2,3-c]isoindolc-3,4′-pipcridin]-7-yl)pipcridinc-2,6-dione], the IC50 at CRBN/DDB1 was in the range of 50 to 500 nM. In addition, the greatest degradation seen (Dmax) at ER in MCF-7 cells (setting [1]) fell in the range of 50 to 75%. Further, the DC50 on ER in MCF-7 cells (16 hrs treatment) was 10 to 100 nM.
For the molecule `O=C1CC[C@H](N2Cc3c(ccc4c3OC[C@H]3CN(CC5CCC6(CC5)CN(c5ccc([C@@H]7c8ccc(O)cc8CC[C@@H]7c7ccccc7)cc5F)C6)CCN43)C2=O)C(=O)N1` (single isomer, unassigned) [Compound A152], the IC50 at CRBN/DDB1 lay within 500 to 5000 nM. Further, the Dmax on ER in MCF-7 cells (setting [2]) lay within 50 to 75%. On ER in MCF-7 cells (16 hrs treatment), the DC50 fell in the range of 1 to 10 nM.
Regarding `O=C1CCC(NC(=O)c2ccc(C3CCN(CC4CCN(c5ccc([C@@H]6c7ccc(O)cc7CC[C@@H]6c6ccccc6)cc5)CC4)CC3)cn2)C(=O)N1` (stereo partly drawn) [Compound A3, N-(2,6-dioxopiperidin-3-yl)-5-(1-((1-(4-((1R,2S)-6-hydroxy-2-phenyl-1,2,3,4-tetrahydro-naphthalen-1-yl)phenyl)piper-idin-4-yl)methyl)piperidin-4-yl)picolinamide], the IC50 on CRBN/DDB1 is over 5000 nM. Moreover, at ER in MCF-7 cells (setting [2]), the Dmax lay in the range of 25 to 50%. Also, the DC50 on ER in MCF-7 cells (16 hrs treatment) is under 1 nM.
For `O=C1CC[C@H](N2Cc3c(ccc4c3OCC43CCN(CC4CC5(CCN(c6ncc([C@H]7c8ccc(O)cc8CC[C@H]7c7ccccc7)cn6)CC5)C4)CC3)C2=O)C(=O)N1` [Compound A141, (S)-3-(1′-((7-(5-((1R,2R)-6-hydroxy-2-phenyl-1,2,3,4-tetrahydronaphthalen-1-yl)pyrimidin-2-yl)-7-azaspiro[3.5]nonan-2-yl)methyl)-6-oxo-6,8-dihydro-2H,7H-spiro[furo[2,3-e]isoindole-3,4′-piperidin]-7-yl)piperidine-2,6-dione], the half-maximal inhibitory concentration (IC50) at CRBN/DDB1 is under 50 nM. On ER in MCF-7 cells (setting [1]), the maximal degradation (Dmax) was 50 to 75%. Also, the DC50 at ER in MCF-7 cells (16 hrs treatment) lay within 1 to 10 nM.
On to `O=C1CC[C@H](N2Cc3c(ccc4c3OCC43CCN(CC4CCC5(CC4)CN(c4ncc([C@H]6c7ccc(O)cc7CC[C@H]6c6ccccc6)cn4)C5)CC3)C2=O)C(=O)N1` [Compound A153, (S)-3-(1′-((2-(5-((1R,2R)-6-hydroxy-2-phenyl-1,2,3,4-tetrahydronaphthalen-1-yl)pyrimidin-2-yl)-2-azaspiro[3.5]nonan-7-yl)methyl)-6-oxo-6,8-dihydro-2H,7H-spiro[furo[2,3-e]isoindole-3,4′-piperidin]-7-yl)piperidine-2,6-dione], for which the half-maximal inhibitory concentration (IC50) on CRBN/DDB1 is under 50 nM. For the same molecule, at ER in MCF-7 cells (setting [1]), the greatest degradation seen (Dmax) is under 25%. Besides, on ER in MCF-7 cells (16 hrs treatment), the DC50 was over 100 nM.
Regarding `COc1cc([C@H]2c3ccc(O)cc3CC[C@H]2c2ccccc2)c(F)cc1N1CCC2(CC1)CC(CN1CCN3c4ccc5c(c4OC[C@H]3C1)CN([C@H]1CCC(=O)NC1=O)C5=O)C2` [Compound A117, (S)-3-((R)-7-((7-(5-fluoro-4-((1R,2R)-6-hydroxy-2-phenyl-1,2,3,4-tetrahydronaphthalen-1-yl)-2-methoxyphenyl)-7-aza-spiro[3.5]nonan-2-yl)methyl)-1-oxo-1,3,5,5a,6,7,8,9-octa-hydro-2H-pyrazino[1′,2′:4,5] [1,4]oxazino[2,3-e]isoindol-2-yl)piperidine-2,6-dione], at CRBN/DDB1, the IC50 was under 50 nM. Moreover, at ER in MCF-7 cells (setting [2]), the Dmax was in the range of 25 to 50%. In addition, the DC50 on ER in MCF-7 cells (16 hrs treatment) was in the range of 10 to 100 nM.
For `O=C1CC[C@H](N2Cc3cc4c(cc3C2=O)OC[C@@H]2CN(CC3CCC5(CC3)CN(c3ncc([C@@H]6c7ccc(O)cc7CC[C@@H]6c6ccccc6)cn3)C5)CCN42)C(=O)N1` (single isomer, unassigned) [Compound A158], the IC50 at CRBN/DDB1 lay within 500 to 5000 nM. For the same molecule, the Dmax on ER in MCF-7 cells (setting [2]) fell in the range of 50 to 75%. Moreover, the DC50 at ER in MCF-7 cells (16 hrs treatment) was under 1 nM.
For the molecule `O=C1CC[C@H](N2Cc3c(ccc4c3OC[C@H]3CN(CC5CCC6(CC5)CN(c5ccc([C@H]7c8ccc(O)cc8CC[C@H]7c7ccccc7)cc5F)C6)CCN43)C2=O)C(=O)N1` (single isomer, unassigned) [Compound A159], the concentration for half-maximal inhibition (IC50) on CRBN/DDB1 was 50 to 500 nM. Further, the maximal degradation (Dmax) on ER in MCF-7 cells (setting [2]) is 25 to 50%. Further, the DC50 at ER in MCF-7 cells (16 hrs treatment) lay within 10 to 100 nM.
For the molecule `O=C1CC[C@H](N2Cc3c(ccc4c3OC[C@H]3CN(C5CN(CCOc6ccc([C@@H]7c8ccc(O)cc8CC[C@@H]7c7ccccc7)cc6)C5)CCN43)C2=O)C(=O)N1` [Compound A79, (S)-3-((R)-7-(1-(2-(4-((1R,2S)-6-hydroxy-2-phenyl-1,2,3,4-tetrahydronaphthalen-1-yl)-phenoxy)ethyl)azetidin-3-yl)-1-oxo-1,3,5,5a,6,7,8,9-octa-hydro-2H-pyrazino[1′,2′:4,5] [1,4]oxazino[2,3-e]isoindol-2-yl)piperidine-2,6-dione], the IC50 on CRBN/DDB1 was under 50 nM. Besides, the Dmax at ER in MCF-7 cells (setting [2]) lay within 50 to 75%. Moreover, on ER in MCF-7 cells (16 hrs treatment), the DC50 is under 1 nM.
The like results for `O=C1CC[C@H](N2Cc3cc4c(cc3C2=O)OC[C@@H]2CN(CC3CCC5(CC3)CN(c3ncc([C@H]6c7ccc(O)cc7CC[C@H]6c6ccccc6)cn3)C5)CCN42)C(=O)N1` (single isomer, unassigned) [Compound A157] were, in that order, 500 to 5000 nM, under 25% and 10 to 100 nM.
The like results for `COc1cc(N2CCC3(CC2)CC(CN2CCN4c5ccc6c(c5OC[C@H]4C2)CN([C@H]2CCC(=O)N(C)C2=O)C6=O)C3)ccc1[C@@H]1c2ccc(O)cc2CC[C@@H]1c1ccccc1` (single isomer, unassigned) [Compound A132] were, in that order, 500 to 5000 nM, 50 to 75% and 1 to 10 nM.
The like results for `O=C1CC[C@H](N2Cc3cc4c(cc3C2=O)OC[C@@H]2CN(CC3CC5(CCN(c6ccc([C@@H]7c8ccc(O)cc8CC[C@@H]7c7ccccc7)cn6)CC5)C3)CCN42)C(=O)N1` (single isomer, unassigned) [Compound A121] were, in that order, 500 to 5000 nM, over 75% and 1 to 10 nM.
Regarding `O=C1CC[C@H](N2Cc3cc4c(cc3C2=O)OC[C@@H]2CN(CC3CCC5(CC3)CN(c3ccc([C@H]6c7ccc(O)cc7CC[C@H]6c6ccccc6)cc3F)C5)CCN42)C(=O)N1` (single isomer, unassigned) [Compound A151], the half-inhibitory concentration (IC50) at CRBN/DDB1 fell in the range of 500 to 5000 nM. At ER in MCF-7 cells (setting [2]), the Dmax lay in the range of 25 to 50%. Moreover, at ER in MCF-7 cells (16 hrs treatment), the DC50 lay in the range of 10 to 100 nM.
In the case of `COc1cc(N2CC3(CCC(CN4CCN5c6cc7c(cc6OC[C@@H]5C4)C(=O)N([C@H]4CCC(=O)NC4=O)C7)CC3)C2)c(F)cc1[C@@H]1c2ccc(O)cc2CC[C@@H]1c1ccccc1` (single isomer, unassigned) [Compound A164], the half-inhibitory concentration (IC50) at CRBN/DDB1 lay within 500 to 5000 nM. Further, on ER in MCF-7 cells (setting [2]), the Dmax was over 75%. For the same molecule, the half-maximal degradation concentration (DC50) at ER in MCF-7 cells (16 hrs treatment) is 1 to 10 nM.
